EC50 data for 28 compounds are collected here from patent US20240018145A1, “[…]-DEPENDENT EN[…] TREATING OR […]” (priority 2020, published 2024).

One test concerns FLU A (PR/8/34). In words: Flu A Neuraminidase Antiviral Assay. The test is classed as cell-based.
Details: not given
As for `C=CCC1CCC2N(C)C(=O)c3c(O)c(=O)ccn3N2C1c1ccccc1Cl` (stereo not shown) [Compound 64B, 2-allyl-1-(2-chlorophenyl)-7-hydroxy-5-methyl-1,2,3,4,4a,5-hexahydrodipyrido[1,2-b:2′,1′-f][1,2,4]triazine-6,8-dione], the EC50 amounted to 28.4 nM. Regarding `CN1C(=O)c2c(O)c(=O)ccn2N2C(c3ccccc3)C(c3cc(F)c(F)cc3F)CCC12` (single isomer, unassigned) [Compound 86D, 7-hydroxy-5-methyl-1-phenyl-2-(2,4,5-trifluorophenyl)-1,2,3,4,4a,5-hexahydrodipyrido[1,2-b:2′,1′-f][1,2,4]triazine-6,8-dione], the EC50 was over 810 nM. The same measure, in the same setting: with `CN1C(=O)c2c(O)c(=O)ccn2N2C(c3ccccc3F)CCCC12` (single isomer, unassigned) [Compound 8A, 1-(2-fluorophenyl)-7-hydroxy-5-methyl-1,2,3,4,4a,5-hexahydrodipyrido[1,2-b:2′,1′-f][1,2,4]triazine-6,8-dione] the figure was over 8100 nM; with `CC1(c2nccs2)CCCC2N(CC(F)(F)F)C(=O)c3c(O)c(=O)ccn3N21` (single isomer, unassigned) [Compound 41B, 7-hydroxy-1-methyl-1-(thiazol-2-yl)-5-(2,2,2-trifluoroethyl)-1,2,3,4,4a,5-hexahydrodipyrido[1,2-b:2′,1′-f][1,2,4]triazine-6,8-dione], 11.1 nM; with `O=C1c2c(O)c(=O)ccn2N2C(c3ccccc3)C(CC3(C(F)(F)F)CC3)CCC2N1CC1CC1` (single isomer, unassigned) [Compound 90A, 5-(cyclopropylmethyl)-7-hydroxy-1-phenyl-2-((1-(trifluoromethyl)cyclopropyl)methyl)-1,2,3,4,4a,5-hexahydrodipyrido[1,2-b:2′,1′-f][1,2,4]triazine-6,8-dione], 772 nM.

As to `CN1C(=O)c2c(O)c(=O)ccn2N2C(c3ccccc3)C(CCC(F)(F)F)CCC12C` (single isomer, unassigned) [Compound 78A, 7-hydroxy-4a,5-dimethyl-1-phenyl-2-(3,3,3-trifluoropropyl)-1,2,3,4,4a,5-hexahydrodipyrido[1,2-b:2′,1′-f][1,2,4]triazine-6,8-dione], the EC50 was over 810 nM. The same measure, in the same setting: with `CN1C(=O)c2c(O)c(=O)ccn2N2C1CCC(=O)C2(C)c1ccccc1` (stereo not shown) [Compound 138A, 7-hydroxy-1,5-dimethyl-1-phenyl-3,4,4a,5-tetrahydrodipyrido[1,2-b:2′,1′-f][1,2,4]triazine-2,6,8(1H)-trione] the figure was 19.7 nM; with `CCN1C(=O)c2c(O)c(=O)ccn2N2C(c3ccccc3)C(CCC(F)F)CCC12` (single isomer, unassigned) [Compound 110A, 2-(3,3-difluoropropyl)-5-ethyl-7-hydroxy-1-phenyl-1,2,3,4,4a,5-hexahydrodipyrido[1,2-b:2′,1′-f][1,2,4]triazine-6,8-dione], 1120 nM. Same read-out and setting: with `CCC1(c2ccccc2)CCC2N(C)C(=O)c3c(O)c(=O)ccn3N21` (single isomer, unassigned) [Compound 62C, 1-ethyl-6-hydroxy-4-methyl-1-phenyl-2,3,3a,4-tetrahydro-1H-pyrido[2,1-f]pyrrolo[1,2-b][1,2,4]triazine-5,7-dione] the figure was 7490 nM; with `Cc1ccccc1C1C(CCC(F)F)CCC2N(C)C(=O)c3c(O)c(=O)ccn3N12` (single isomer, unassigned) [Compound 103A, 2-(3,3-difluoropropyl)-7-hydroxy-5-methyl-1-(o-tolyl)-1,2,3,4,4a,5-hexahydrodipyrido[1,2-b:2′,1′-f][1,2,4]triazine-6,8-dione], over 810 nM. `CCN1C(=O)c2c(O)c(=O)ccn2N2C(c3ccccc3C)C(CC(F)(F)F)CCC12` (single isomer, unassigned) [Compound 93B, 5-ethyl-7-hydroxy-1-(o-tolyl)-2-(2,2,2-trifluoroethyl)-1,2,3,4,4a,5-hexahydrodipyrido[1,2-b:2′,1′-f][1,2,4]triazine-6,8-dione] registered an EC50 of 2.9 nM. With `CCN1C(=O)c2c(O)c(=O)ccn2N2C(c3ccccc3Br)C(CC(F)(F)F)CCC12` (single isomer, unassigned) [Compound 106B, 1-(2-bromophenyl)-5-ethyl-7-hydroxy-2-(2,2,2-trifluoroethyl)-1,2,3,4,4a,5-hexahydrodipyrido[1,2-b:2′,1′-f][1,2,4]triazine-6,8-dione], the midpoint of the response, the EC50, lay at 87.8 nM. On the same count and under the same terms, with `CN1C(=O)c2c(O)c(=O)ccn2N2C(c3ccccc3)C(C3CCC(F)(F)CC3)CCC12` (single isomer, unassigned) [Compound 84B, 2-(4,4-difluorocyclohexyl)-7-hydroxy-5-methyl-1-phenyl-1,2,3,4,4a,5-hexahydrodipyrido[1,2-b:2′,1′-f][1,2,4]triazine-6,8-dione] the figure was 42 nM. The same measure, in the same setting: under `CN1C(=O)c2c(O)c(=O)ccn2N2C(c3c(F)cccc3F)C(CC(F)(F)F)CCC12` (single isomer, unassigned) [Compound 123A, 1-(2,6-difluorophenyl)-7-hydroxy-5-methyl-2-(2,2,2-trifluoroethyl)-1,2,3,4,4a,5-hexahydrodipyrido[1,2-b:2′,1′-f][1,2,4] triazine-6,8-dione] stands over 8100 nM; under `CN1C(=O)c2c(O)c(=O)ccn2N2C(c3ccccc3)C(O)CCC12` (stereo not shown) [Compound 136B, 2,7-dihydroxy-5-methyl-1-phenyl-1,2,3,4,4a,5-hexahydrodipyrido[1,2-b:2′,1′-f][1,2,4]triazine-6,8-dione], over 8100 nM. Still for that read-out and setting: with `CN1C(=O)c2c(O)c(=O)ccn2N2C1CCC1(CCCC(F)(F)C1)C2c1ccccc1` (single isomer, unassigned) [Compound 75A, 3,3-difluoro-7′-hydroxy-5′-methyl-1′-phenyl-3′,4′,4a′,5′-tetrahydro-1′H-spiro[cyclohexane-1,2′-dipyrido[1,2-b:2′,1′-f][1,2,4]triazine]-6′,8′-dione] the figure was over 810 nM. In turn, `CN1C(=O)c2c(O)c(=O)ccn2N2C(c3ccccc3Br)C(CC(F)(F)F)CCC12` (single isomer, unassigned) [Compound 89A, 1-(2-bromophenyl)-7-hydroxy-5-methyl-2-(2,2,2-trifluoroethyl)-1,2,3,4,4a,5-hexahydrodipyrido[1,2-b:2′,1′-f][1,2,4]triazine-6,8-dione] had an EC50 of 298 nM.

`Cc1ccccc1C1C(CC(F)(C(F)(F)F)C(F)(F)F)CCC2N(C)C(=O)c3c(O)c(=O)ccn3N12` (single isomer, unassigned) [Compound 81B, 7-hydroxy-5-methyl-2-(2,3,3,3-tetrafluoro-2-(trifluoromethyl)propyl)-1-(o-tolyl)-1,2,3,4,4a,5-hexahydrodipyrido[1,2-b:2′,1′-f][1,2,4]triazine-6,8-dione] showed an EC50 of 744 nM. The compound `CN1C(=O)c2c(O)c(=O)ccn2N2C(c3ccccc3Cl)C(CC(F)(F)F)CCC12` (single isomer, unassigned) [Compound 119B, 1-(2-chlorophenyl)-7-hydroxy-5-methyl-2-(2,2,2-trifluoroethyl)-1,2,3,4,4a,5-hexahydrodipyrido[1,2-b:2′,1′-f][1,2,4]triazine-6,8-dione] yielded an EC50 of 2.7 nM. Same read-out and setting: under `CC1(c2ccccc2)CCCC2N(CCC(F)(F)F)C(=O)c3c(O)c(=O)ccn3N21` (single isomer, unassigned) [Compound 38A, 7-hydroxy-1-methyl-1-phenyl-5-(3,3,3-trifluoropropyl)-1,2,3,4,4a,5-hexahydrodipyrido[1,2-b:2′,1′-f][1,2,4]triazine-6,8-dione] stands over 8100 nM. Still for that read-out and setting: under `CN1C(=O)c2c(O)c(=O)ccn2N2C1CCC1(CC(F)(F)C1)C2c1ccccc1` (single isomer, unassigned) [Compound 74D, 3,3-difluoro-7′-hydroxy-5′-methyl-1′-phenyl-3′,4′,4a′,5′-tetrahydro-1′H-spiro[cyclobutane-1,2′-dipyrido[1,2-b:2′,1′-f][1,2,4]triazine]-6′,8′-dione] stands 442 nM; under `CCN1C(=O)c2c(O)c(=O)ccn2N2C(c3ccccc3C)C(CC(F)(F)F)CCC12` (single isomer, unassigned) [Compound 93A, 5-ethyl-7-hydroxy-1-(o-tolyl)-2-(2,2,2-trifluoroethyl)-1,2,3,4,4a,5-hexahydrodipyrido[1,2-b:2′,1′-f][1,2,4]triazine-6,8-dione], 475 nM.

Compound `COCCN1C(=O)c2c(O)c(=O)ccn2N2C(c3ccc(F)cc3)CCCC12` (single isomer, unassigned) [Compound 4B, 1-(4-fluorophenyl)-7-hydroxy-5-(2-methoxyethyl)-1,2,3,4,4a,5-hexahydrodipyrido[1,2-b:2′,1′-f][1,2,4]triazine-6,8-dione] had an EC50 of over 8100 nM.

On to `CN1C(=O)c2c(O)c(=O)ccn2N2[C@H](c3ccccc3)[C@H](OCC(F)F)CC[C@@H]12` (single isomer, unassigned) [Compound 153B], for which the EC50 was 94.4 nM. In turn, `Cc1ccc(C2(C)CCCC3N(CC(F)(F)F)C(=O)c4c(O)c(=O)ccn4N32)nc1` (single isomer, unassigned) [Compound 49A, 7-hydroxy-1-methyl-1-(5-methylpyridin-2-yl)-5-(2,2,2-trifluoroethyl)-1,2,3,4,4a,5-hexahydrodipyrido[1,2-b:2′,1′-f][1,2,4]triazine-6,8-dione] returned an EC50 of over 8100 nM.

The test is the same for the next values; noted with them: MDCK, 48 h.
Turning to `CN1C(=O)c2c(O)c(=O)ccn2N2C1/C(=C/c1ccccc1)C[C@@H](O)[C@@]2(C)c1ccccc1` (stereo partly drawn) [Compound 149, (1R,2R)-4-((E)-benzylidene)-2,7-dihydroxy-1,5-dimethyl-1-phenyl-1,2,3,4,4a,5-hexahydrodipyrido[1,2-b:2′,1′-f][1,2,4]triazine-6,8-dione], the EC50 is over 810 nM. Still for that read-out and setting: with `CC(C)O[C@H]1CC[C@H]2N(C)C(=O)c3c(O)c(=O)ccn3N2[C@@H]1c1ccccc1` [Compound 155, (1R,2S,4aS)-7-hydroxy-2-isopropoxy-5-methyl-1-phenyl-1,2,3,4,4a,5-hexahydrodipyrido[1,2-b:2′,1′-f][1,2,4]triazine-6,8-dione] the figure was 185 nM; with `CCCC1CCC2C(n3ccc(=O)c(O)c3C(=O)N2C)C1(O)c1ccccc1` (single isomer, unassigned) [Compound 166A, 1,7-dihydroxy-5-methyl-1-phenyl-2-propyl-1,3,4,4a,5,11a-hexahydro-2H-pyrido[1,2-a]quinoxaline-6,8-dione], over 8100 nM.

As a reminder, the EC50 is the concentration giving half of the maximal effect. The low end stands for an effect from little substance, the high end for a need for much substance.
